Structures can show the parent of a compound that is named as a salt.
Assays:
GABA-AT [1] = details: aromatization mechanism; cited from earlier work
[2] = test system: aspartate aminotransferase; details: cited from earlier work
alanine aminotransferase = details: cited from earlier work
infantile spasms = details: cited from earlier work
GABA-AT [3] = target: T1, GABA-AT (Sus scrofa, UniProt P80147); test: Time-dependent inhibition; type: biochemical, pig; details: preliminary in vitro results
GABA-AT [4] = target: T1, GABA-AT; test: Inhibition of GABA-AT, coupled assay with SSDH, Ki by Cheng-Prusoff; type: biochemical, pig

T1 sequence (P80147 29-500): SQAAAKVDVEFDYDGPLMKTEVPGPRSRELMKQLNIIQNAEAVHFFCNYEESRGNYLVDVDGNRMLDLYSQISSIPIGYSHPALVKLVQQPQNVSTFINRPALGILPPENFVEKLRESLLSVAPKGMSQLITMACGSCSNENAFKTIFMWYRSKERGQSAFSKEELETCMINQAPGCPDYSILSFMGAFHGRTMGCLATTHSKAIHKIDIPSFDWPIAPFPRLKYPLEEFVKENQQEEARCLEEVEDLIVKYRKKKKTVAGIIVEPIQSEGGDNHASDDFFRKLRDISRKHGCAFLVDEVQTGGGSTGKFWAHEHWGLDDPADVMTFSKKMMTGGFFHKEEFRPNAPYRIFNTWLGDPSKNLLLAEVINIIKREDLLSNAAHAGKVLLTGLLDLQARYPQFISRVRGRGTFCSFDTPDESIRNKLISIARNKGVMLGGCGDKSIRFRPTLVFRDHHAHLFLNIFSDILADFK

Q: For `N[C@H]1C=C(C(=O)O)SC1` [(S)-4-Amino-4,5-dihydro-2-thiophenecarboxylic acid], which “inactivation of GABA-AT (in words)” value (GABA-AT [1]) is on record?
A: The value was “known inactivator”.

Q: And the “inactivation of aspartate aminotransferase (in words)” value [2]?
A: Its value is “inactivator”.

Q: Which results are given for `N[C@H]1C[C@@H](C(=O)O)CC1=C(F)F` [Compound 16]?
A: inactivation or inhibition of alanine aminotransferase (alanine aminotransferase): did not inactivate or inhibit; inactivation or inhibition of aspartate aminotransferase [2]: did not inactivate or inhibit; margin of safety (infantile spasms; compared with vigabatrin): much larger margin of safety than vigabatrin; doses that suppressed spasms (infantile spasms; rat): 0.1 to 1 mg/kg/day; effective doses lower than those for vigabatrin (infantile spasms; rat): > 100 fold; time spasms suppression stayed effective (infantile spasms; rat): 3 days

Q: Which “inactivation of GABA-AT (in words)” value (GABA-AT [3]) does the source give for `Cl.N[C@@H]1CS[C@H](C(=O)O)C1` [Compound 17, (2S,4S)-4-Aminotetrahydrothiophene-2-carboxylic acid hydrochloride] here?
A: Its value is “potent inactivators”.

Q: Which “inactivation of GABA-AT (in words)” value (GABA-AT [3]) does the source give for `Cl.N[C@@H]1CS[C@@H](C(=O)O)C1` [Compound 18, (2R,4S)-4-Aminotetrahydrothiophene-2-carboxylic acid hydrochloride] here?
A: The value was “potent inactivators”.

Q: With `N[C@H]1CC(C(=O)O)S(=O)(=O)C1` (stereo partly drawn) [Compound 19, (4S)-4-Aminotetrahydrothiophene-2-carboxylic acid 1,1-dioxide hydrochloride] as the compound, how does the Ki (GABA-AT [4]; reversible inhibition, pH 8.5, 25 °C, 10 mM GABA) read?
A: The Ki was 3.2 ± 0.7 mM.

Q: What does the source list for `N[C@@H]1CC[C@H](C(=O)O)C1` [Compound 39, (1S,3R)-3-aminocyclopentane-1-carboxylic acid]?
A: inactivation of GABA-AT (in words) (GABA-AT [3]): not an inactivator; reversible inhibition of GABA-AT (in words) (GABA-AT [4]; preliminary in vitro results): good competitive inhibitor

Q: For `C=CC(N)CCC(=O)O` (centres unmarked) [vigabatrin], which “time spasms suppression stayed effective” value (infantile spasms; rat) is on record?
A: Its value is 1 days.

Reference: PMC4390550 (Journal of the American Chemical Society, 2015)
